Measurements: patent publication US8846670B2, “1,2,3,4-tetrahydro-pyrimido(1,2-a)pyrimidin-6-one derivatives, preparation thereof, and pharmaceutical use thereof” (priority 2009, dated 2014)

Tests used:
Format in all cases: cell-based
[1] = system: AKT protein phosphorylated on serine 473 (P-AKT-S473) in PC3 human prostate carcinoma line; experiment: Study of pAKT expression in PC3 human prostate carcinoma cells measured by the MSD Multi-spot Biomarker Detection technique (Test B); settings: Homo sapiens, PC-3, P-AKT-S473 in PC3 cells, MSD sandwich immunoassay, 1 to 2 h incubation; absolute IC50, mean of 2 experiments
Experimental: The inhibitory activity of the molecules on AKT phosphorylation is measured either by western blotting using the technique described below, or by the MSD Multi-spot Biomarker detection technique from Meso Scale Discovery also described below.
Study of pAKT Expression in PC3Human Prostate Carcinoma Cells Measured by the MSD Multi-Spot Biomarker Detection Technique from Meso Scale Discovery (Test B):
The primary antibody specific for P-AKT-S473 (Kit #K151CAD) is coated onto an electrode in each well of the 96-well plates of the MSD kit: after the addition of a protein lysate to each well, the signal is visualised by adding a secondary detection antibody labelled with an electrochemiluminescent compound. The procedure followed is that described in the kit.
On day 2, the cells are incubated in the presence or absence of the test products for 1 to 2 h at 37° C. in the presence of 5% of CO2. The molecules, diluted in dimethyl sulphoxide (DMSO Sigma #D2650), are added from a 20-times concentrated stock solution, the final percentage of DMSO being 0.1%.
After this incubation, the cells are lysed for the preparation of the proteins. […] At this stage, the plates containing the lysates can be frozen at −20° C. or at −80° C.
The wells of the 96-well plates of the MSD kit are saturated for 1 h at ambient temperature with the blocking solution of the MSD kit. Four washes are carried out with 150 μl of Tris Wash Buffer of the MSD kit. The lysates previously prepared are transferred into the 96-well multi-spot plates of the MSD kit and incubated for 1 h at ambient temperature, with shaking. Four washes are carried out with 150 μl of Tris Wash Buffer of the MSD kit. 25 μl of the MSD sulfo-tag detection antibody solution are added to the wells and incubated for 1 h at ambient temperature, with shaking. Four washes are carried out with 150 μl of Tris Wash Buffer of the MSD kit. 150 μl of Read Buffer of the MSD kit are added to the wells and the plates are read immediately on the S12400 instrument from Meso Scale Discovery.
The instrument measures a signal for each well. Wells without cells and containing the lysis buffer serve to determine the background noise that will be subtracted from all the measurements (min). The wells containing cells in the absence of product and in the presence of 0.1% DMSO are considered to be the 100% signal (max). The percentage inhibition is calculated for each concentration of test product according to the following formula: (1−((test−min)/(max−min)))×100.
2 independent experiments make it possible to calculate the mean of the IC50 values.

[2] = system: translocation of the LC3 protein in Hela GFP-LC3 cells; experiment: Study of the translocation of the LC3 protein in Hela human cells, measured by image analysis cytometry (Test C, autophagy); settings: Homo sapiens, HeLa, 2 h, Hela GFP-LC3 cells with LC3 granulations, EBSS + 10 μM hydroxychloroquine, absolute IC50
Experimental: The inhibitory activity of the molecules on autophagy is measured by the translocation of the LC3 protein from the cytoplasm to the autophagosomes. For this, Hela cells were transfected with a vector encoding the chimeric protein GFP-LC3. A Hela clone stably expressing the GFP-LC3 protein was selected.
Study of the Translocation of the LC3 Protein in Hela Human Cells, Measured by Image Analysis Cytometry (Test C):
On day 2, the cells are washed twice with EBSS (Sigma #E3024). The cells are then incubated in EBSS, 10 μM of hydroxychloroquine and test products for 2 h at 37° C. in the presence of 5% CO2. The molecules are diluted in dimethyl sulphoxide (DMSO Sigma #D2650), the final DMSO percentage being 0.1%.
After this incubation, the cells are fixed with 4% paraformaldehyde (Sigma #HT501128 4 L) for 10 min. […] The 96-well plates are then read with the iCyte image analysis cytometer (Compucyte).
Two independent experiments make it possible to calculate the mean of the IC50 values.

[3] = system: P. falciparum (highly chloroquine-resistant strain Fcm29-Cameroon); experiment: Antimalarial activity test (radioactive micromethod of Desjardins); settings: Plasmodium falciparum, Erythrocyte, infected human erythrocytes, 48 h, tritiated hypoxanthine incorporation
Experimental: Antimalarial Activity Test
The P. falciparum strains are cultured in solutions of RPM! […] For each assay, the parasites are incubated with selected concentrations of drugs for 48 h at 37° C. in a humid atmosphere and at 5% CO2. Artemisinin, artesunate and also chloroquine diphosphate are used as reference molecules. The first dilution of the drug is prepared at 1 mg/ml in dimethyl sulphoxide. The range of successive daughter solution dilutions is also prepared in dimethyl sulphoxide. […] These dilutions are then added to the parasites in culture in the microplates. […] The growth of the parasites is measured by incorporation of tritiated hypoxanthine (added 24 h after the beginning of the exposure to the drug) compared with the incorporation in the absence of drug.

[4] = system: AKT protein phosphorylated on serine 473 (pAKT-S473) in PC3 human prostate carcinoma line; experiment: Study of pAKT expression in PC3 human prostate carcinoma cells measured by western blotting (Test A); settings: PC-3, 1 to 2 hours incubation, approximate absolute IC50, mean of two experiments
Experimental: The inhibitory activity of the molecules on AKT phosphorylation is measured either by western blotting using the technique described below, or by the MSD Multi-spot Biomarker detection technique from Meso Scale Discovery also described below. […] Study of pAKT Expression in Pc3Human Prostate Carcinoma Cells Measured by Western Blotting (Test A): This test is based on measuring the expression of the AKT protein phosphorylated on […]. […] On day 2, the cells are incubated in the presence or absence of the test products for 1 to 2 hours at 37° C. in the presence of 5% CO2. The molecules, diluted in dimethyl sulphoxide (DMSO Sigma #D2650), are added from a 10-times concentrated stock solution, the final percentage of DMSO being 0.1%. […] After this incubation, the cells are lysed for the preparation of the proteins. […] The lysate is centrifuged for 10 min at 6000 rpm. 155 μl of supernatant are recovered. 150 μl are incubated for denaturation for 5 min at 95° C. in the presence of 4× NuPAGE LDS Sample Buffer diluted 4-fold (InVitrogen ref NP0007) and of 10× NuPAGE Sample Reducing Agent diluted 10-fold (InVitrogen ref NP0009). These samples are then frozen at -20° C. […] The gel is then transferred on to an Invitrolon PVDF membrane (Invitrogen #LC2007) permeabilised beforehand for a few seconds in ethanol (Ethanol Fischer Scientific #E/0600DF/15). The transfer is carried out in a Biorad tank at 30 volts overnight or at 60 volts for 3 hours, in the presence of 20× NUPAGE Transfer Buffer diluted 20-fold (InVitrogen ref NP0006). The membrane is then saturated in saturating solution composed of TBS (10× Tris Buffered Saline, Sigma #T5912, diluted 10-fold), 0.1% Tween 20 (Sigma #P5927) and 3% BSA (Bovine Serum Albumin Fraction V, Sigma #A4503) for 6 h after overnight transfer or else for 1 h after transfer for a period of 3 h. […] Two rinses for 5 min in washing solution composed of TBS and 0.1% Tween 20 are carried out before hybridisation of the secondary antibodies. The secondary antibodies are diluted to 1/10000th for the rabbit anti-Mouse IgG HRP antibody ([…] Promega) and to 1/10000th for the goat anti-Rabbit IgG HRP antibody ([…] Promega) in saturating solution, and then shaken for 1 h at ambient temperature. Two rinses for 30 min in washing solution are carried out and then a rinse for 5 min in H2O is carried out in order to eliminate the remaining Tween 20. […] The luminescence is read with the FujiFilm device (Ray Test). The FUJI device measures the total luminescence signal obtained (AU) for each band selected. It then subtracts the background noise (BG) proportional to the size of the band selected (Area), said background noise being calculated from a specific background noise band, with a view to obtaining the specific signal (AU-BG) for each band. The band obtained in the absence of product and in the presence of 0.1% DMSO is considered to be the 100% signal. The software calculates the % specific activity (Ratio) obtained for each band selected as a function of this 100% signal. The percentage inhibition is calculated for each concentration according to the formula (100%-Ratio). Two independent experiments make it possible to calculate the mean of the percentages of inhibition obtained at a given concentration for the products tested only at one concentration. […] Two independent experiments make it possible to calculate the mean of the IC50 values.

Row | SMILES | IC50 [1] | IC50 [2] | inhibition at 1 µM [3] | IC50 [4] | inhibition at 0.1 µM [3]
1 | COc1ccc(N2c3nc(N4CCOCC4)cc(=O)n3CC[C@H]2C(F)(F)F)cc1 [Example 27, (8S)-9-(4-methoxyphenyl)-2-(morpholin-4-yl)-8-(trifluoromethyl)-6,7,8,9-tetrahydro-4H-pyrimido[1,2-a]pyrimidin-4-one] | 10 nM | 363 nM | 36% |  | 
2 | O=c1cc(N2CCOCC2)nc2n1CC[C@@H](C(F)(F)F)N2Cc1ccc(F)cc1 [Example 17, (8S)-9-(4-fluorobenzyl)-2-(morpholin-4-yl)-8-(trifluoromethyl)-6,7,8,9-tetrahydro-4H-pyrimido[1,2-a]pyrimidin-4-one] |  | 119 nM |  | 350 nM | 
3 | COc1ccc(CCN2c3nc(N4CCOCC4)cc(=O)n3CCC2C(F)(F)F)cc1 (racemic) [Example 2, (R,S)-9-[2-(4-methoxyphenyl)ethyl]-2-morpholin-4-yl-8-trifluoromethyl-6,7,8,9-tetrahydropyrimido[1,2-a]pyrimidin-4-one] |  | 16 nM |  | 315 nM | 
4 | C[C@@H](c1ccc(Br)cc1)N1c2nc(N3CCOCC3)cc(=O)n2CC[C@H]1C(F)(F)F (single isomer, unassigned) [Example 10, (8S)-9-[R1R or 1S)-1-(4-bromophenyl)ethyl]-2-(morpholin-4-yl)-8-(trifluoromethyl)-6,7,8,9-tetrahydro-4H-pyrimido[1,2-a]pyrimidin-4-one] |  | 249 nM |  | 357 nM | 
5 | COc1ccccc1CCN1c2nc(N3CCOCC3)cc(=O)n2CC[C@H]1C(F)(F)F [Example 24, (8S)-9-[2-(2-methoxyphenyl)ethyl]-2-(morpholin-4-yl)-8-(trifluoromethyl)-6,7,8,9-tetrahydro-4H-pyrimido[1,2-a]pyrimidin-4-one] | 9 nM | 103 nM | 100% |  | 40%
6 | COc1cc(F)ccc1[C@H](O)CN1c2nc(N3CCOCC3)cc(=O)n2CC[C@H]1C(F)(F)F [Example 52, 9-[(S)-2-(4-Fluoro-2-methoxyphenyl)-2-hydroxyethyl]-2-morpholin-4-yl-8-(S)-trifluoromethyl-6,7,8,9-tetrahydro-pyrimido[1,2-a]pyrimidin-4-one] |  |  | 99% |  | 75%
7 | COc1ccc([C@H](O)CN2c3nc(N4CCOCC4)cc(=O)n3CC[C@H]2C(F)(F)F)c(Cl)c1 [Example 54, 9-[(S)-2-(2-Chloro-4-methoxyphenyl)-2-hydroxyethyl]-2-morpholin-4-yl-8-(S)-trifluoromethyl-6,7,8,9-tetrahydro-pyrimido[1,2-a]pyrimidin-4-one] |  |  | 99% |  | 83%
8 | COc1ccccc1[C@H](O)CN1c2nc(N3CCOCC3)cc(=O)n2CC[C@H]1C(F)(F)F [Example 51, 9-[(S)-2-Hydroxy-2-(2-methoxyphenyl)ethyl]-2-morpholin-4-yl-8-(S)-trifluoromethyl-6,7,8,9-tetrahydropyrimido[1,2-a]pyrimidin-4-one] |  |  | 99% |  | 75%
9 | COc1ccc(C(C)N2c3nc(N4CCOCC4)cc(=O)n3CC[C@H]2C(F)(F)F)cc1 (mixture of isomers) [Example 9, (8S)-9-[(1R and 1S)-1-(4-methoxyphenyl)ethyl]-2-(morpholin-4-yl)-8-(trifluoromethyl)-6,7,8,9-tetrahydro-4H-pyrimido[1,2-a]pyrimidn-4-one] |  |  |  | 676 nM | 
10 | O=c1cc(N2CCOCC2)nc2n1CC[C@@H](C(F)(F)F)N2c1ccc(F)cc1 [Example 13, (8S)-9-(4-fluorophenyl)-2-(morpholin-4-yl)-8-(trifluoromethyl)-6,7,8,9-tetrahydro-4H-pyrimido[1,2-a]pyrimidin-4-one] | 25 nM | 632 nM | 52% |  | 
11 | O=c1cc(N2CCOCC2)nc2n1CC[C@@H](C(F)(F)F)N2CC(O)Cc1ccccc1 (stereo partly drawn) [Example 55, 9-(2-Hydroxy-3-phenylpropyl)-2-morpholin-4-yl-8-(S)-trifluoromethyl-6,7,8,9-tetrahydropyrimido[1,2-a]pyrimidin-4-one] |  |  | 93% |  | 81%
12 | O=c1cc(N2CCOCC2)nc2n1CC[C@@H](C(F)(F)F)N2C[C@@H](O)c1cccc(O)c1 [Example 49, 9-[(S)-2-Hydroxy-2-(3-hydroxyphenyl)ethyl]-2-morpholin-4-yl-8-(S)-trifluoromethyl-6,7,8,9-tetrahydropyrimido[1,2-a]pyrimidin-4-one] |  |  | 99% |  | 81%
